# Laboratory results published in patent publication EP0373623A2, “Pharmaceutical compositions useful in potentiating natural killer cell activity” (MERRELL DOW PHARMACEUTICALS INC., priority 1988, dated 1990).
# System: Hepatic metastases
# Assay: Induced hepatic metastases after intrasplenic tumor cell injection
# Format: in vivo, C57BL/6 mice
# Conditions: DAP 100 mg/kg; for Metastic foci: mean ± S.E., n=8; for % Reduction: reduction in metastic foci from PBS control group
# Method: Hepatic metastases were induced as follows. C57BL/6 mice were anesthetized by […] of pentobarbital. The mice were prepped with 70% ethanol, dried with a sterile gauze, and then, with the use of sterile scissors, a small left subcostal incision was made. The spleen was exposed, and its short gastric vessels along with the gastrosplenic ligament were cut, allowing the spleen to be brought onto the animal's abdominal wall attached to its splenic pedicle. […] of a single cell suspension containing 3 x 10⁵ tumor cells in HBSS was injected into the upper pole of the exposed extraabdominal spleen. After the injection was completed, the needle was removed, and a period of 1 minute was allowed to elapse to permit tumor cells to be flushed into the portal circulation. The splenic pedicle was clipped, the spleen was removed, and splenic pedicle was dropped i.p. The abdominal wall musculature and skin were closed in one layer. The animals were randomly allocated to their respective treatment groups and were allowed to recover. By day 3 after tumor injection, micrometastases were apparent histologically.
# Each group was then treated with DAP, intraperitonealy, subcutaneously, or orally. A control group was treated with phosphate buffered saline (PBS). Metastic foci was determined and the percent reduction in metastic foci from the control group was determined with each group treated with DAP as follows: […]
smiles,measurement,setting,value
"CC(=O)NCCCCNC(C)=O [DAP, Diacetylputrescine]",Metastic foci,"d1-10, i.p.",40.8 ± 14.7
same,% Reduction,"d1-10, i.p.",65.9%
same,Metastic foci,"d1-10, p.o.",27.2 ± 7.1
same,% Reduction,"d1-10, p.o.",77.3%
same,Metastic foci,"d1-10, s.c.",31.0 ± 8.4
same,% Reduction,"d1-10, s.c.",74.1%
